Source: paper PMC7277649, “Amaryllidaceae Alkaloids of Belladine-Type from Narcissus pseudonarcissus cv. Carlton as New Selective Inhibitors of Butyrylcholinesterase” (Biomolecules, 2020)

Tests used:
hAChE = target: T1, hAChE (Homo sapiens, UniProt P22303); experiment: biochemical; conditions: for IC50: mean ± SD of three independent measurements, each in triplicate; for inhibition at 100 µM: tested at 100 µM compound concentration, read-out: %Inhibition hAChE ± SD
T1 construct: 8.3 μL of either blood cell lysate or plasma dilutions; from tissue; host or cells: blood cell lysate
T1 sequence (P22303 other isoform, or with tags, fused parts or gaps): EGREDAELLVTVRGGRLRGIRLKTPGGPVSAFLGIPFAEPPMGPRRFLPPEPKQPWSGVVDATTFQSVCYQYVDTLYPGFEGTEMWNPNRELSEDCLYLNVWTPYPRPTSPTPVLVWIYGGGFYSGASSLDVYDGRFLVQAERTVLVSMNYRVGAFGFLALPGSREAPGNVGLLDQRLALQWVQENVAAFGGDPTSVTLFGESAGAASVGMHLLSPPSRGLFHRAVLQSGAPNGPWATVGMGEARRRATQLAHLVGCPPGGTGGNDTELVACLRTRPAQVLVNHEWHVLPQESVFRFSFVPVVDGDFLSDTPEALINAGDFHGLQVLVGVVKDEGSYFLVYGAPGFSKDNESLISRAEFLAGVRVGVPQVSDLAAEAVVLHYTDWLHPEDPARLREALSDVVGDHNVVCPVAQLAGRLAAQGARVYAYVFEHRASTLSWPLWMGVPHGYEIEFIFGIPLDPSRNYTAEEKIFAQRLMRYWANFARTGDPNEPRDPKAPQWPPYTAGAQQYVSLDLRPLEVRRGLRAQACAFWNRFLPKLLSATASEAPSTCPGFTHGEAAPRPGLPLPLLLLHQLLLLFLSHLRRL
Protocol: (§1) The hAChE and hBuChE activities were determined using a modified method of Ellman, as described. Briefly, hAChE and hBuChE activities were determined using a modified method of Ellman, with acetylthiocholine iodide (ATChI) and butyrylthiocholine iodide (BuTChI) as substrates, respectively. Briefly, 8.3 μL of either blood cell lysate or plasma dilutions (at least six different concentrations), 283 μL of 5 mM 5,5′-dithiobis-2-nitrobenzoic acid (DTNB) and 8.3 μL of the sample dilution in dimethyl sulfoxide (DMSO) (40 mM, 10 mM, 4 mM, 1 mM, 0.4 mM, and 0 mM) were added to the semi-micro cuvette. The reaction was initiated by addition of 33.3 μL 10 mM substrate (ATChI or BuTChI). The final proportion of DTNB and substrate was […]. The increase of absorbance (ΔA) at 436 nm for AChE and 412 nm for BuChE was measured for 1 min at 37 °C using a spectrophotometer (Synergy^TM HT Multi-Detection Microplate Reader). Each measurement was repeated six times for every concentration of enzyme preparation.

hBuChE = target: T2, hBuChE (Homo sapiens, UniProt P06276); experiment: biochemical; assay type: biochemical; conditions: for IC50: mean ± SD of three independent measurements, each in triplicate; for inhibition at 100 µM: tested at 100 µM compound concentration, read-out: % inhibition hBuChE ± SD; for SI for hBuChE: ratio hAChE IC50/hBuChE IC50
T2 construct: 8.3 μL of either blood cell lysate or plasma dilutions; from tissue; host or cells: plasma
Protocol: as §1

POP (EC 3.4.21.26) = target: T3, POP (EC 3.4.21.26) (Homo sapiens, UniProt P48147); experiment: POP inhibition assay; assay type: biochemical
T3 sequence (P48147 1-710): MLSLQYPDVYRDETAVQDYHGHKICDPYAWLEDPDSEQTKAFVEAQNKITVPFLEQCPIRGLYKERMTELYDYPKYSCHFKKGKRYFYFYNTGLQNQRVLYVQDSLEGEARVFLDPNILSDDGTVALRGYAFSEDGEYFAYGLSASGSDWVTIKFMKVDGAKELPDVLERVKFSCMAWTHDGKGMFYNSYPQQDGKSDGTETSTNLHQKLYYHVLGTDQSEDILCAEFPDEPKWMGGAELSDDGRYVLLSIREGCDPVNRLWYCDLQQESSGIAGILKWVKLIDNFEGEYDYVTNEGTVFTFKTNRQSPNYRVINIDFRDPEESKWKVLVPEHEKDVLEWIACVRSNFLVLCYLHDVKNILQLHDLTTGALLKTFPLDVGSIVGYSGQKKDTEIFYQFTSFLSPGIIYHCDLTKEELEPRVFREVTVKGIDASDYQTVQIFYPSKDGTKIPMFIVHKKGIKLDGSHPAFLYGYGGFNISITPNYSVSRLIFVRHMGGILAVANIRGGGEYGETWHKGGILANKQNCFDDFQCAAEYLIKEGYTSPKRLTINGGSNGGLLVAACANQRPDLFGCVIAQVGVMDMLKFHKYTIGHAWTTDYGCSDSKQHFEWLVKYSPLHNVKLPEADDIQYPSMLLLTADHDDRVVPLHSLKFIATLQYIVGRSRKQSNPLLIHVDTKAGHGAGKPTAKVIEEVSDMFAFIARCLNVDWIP
Protocol: POP (EC 3.4.21.26) was dissolved in phosphate-buffered saline (PBS; 0.01 M Na/K phosphate buffer, pH 7.4, containing 137 mM NaCl and 2.7 mM KCl); the specific activity of the enzyme was 0.2 U/mL. The assay was performed in standard polystyrene 96-well microplates with a flat and clear bottom. Stock solutions of tested compounds were prepared in DMSO (10 mM). Dilutions (10^−3 to 10^−7 M) were prepared from the stock solution with deionized H2O; the control was performed with the same DMSO concentration. POP substrate, (Z)-Gly-Pro-p-nitroanilide, was dissolved in 50% 1,4-dioxane (5 mM). For each reaction, PBS (170 μL), tested compound (5 μL), and POP (5 μL) were incubated for 5 min at 37 °C. Then, substrate (20 μL) was added, and the microplate was incubated for 30 min at 37 °C. The formation of p-nitroanilide, directly proportional to the POP activity, was measured spectrophotometrically at 405 nm using a microplate ELISA reader (multimode microplate reader Synergy 2, BioTek Instruments, Winooski, VT, USA). […] All calculations were performed using GraphPad Prism software version 7.03 for Windows (GraphPad Software Inc., San Diego, California, USA).

Question: Which IC50 (hAChE) does the source give for `COc1ccc2c3c1O[C@H]1C=CC=C[C@@]31CCN(C)C2` [3,4-Anhydrogalanthamine (3), 3,4-anhydrogalanthamine] here?
Answer: Its IC50 is > 100 µM.

Question: And the inhibition at 100 µM (hAChE)?
Answer: Its inhibition at 100 µM is 4%.

Question: What about the IC50 (hBuChE) of the same compound?
Answer: The IC50 was > 100 µM.

Question: And the inhibition at 100 µM (hBuChE)?
Answer: The inhibition at 100 µM was 28 ± 1%.

Question: What does the source list for `COc1cc(CN(C)CCc2ccc(O)cc2)c(-c2cccc3c2N(C)CC3)cc1OC` [Carltonine A (13), carltonine A]?
Answer: IC50 (hAChE): > 100 µM; inhibition at 100 µM (hAChE): 2%; IC50 (hBuChE): 0.91 ± 0.02 µM; SI for hBuChE (hBuChE): >110; SI for hBuChE (hBuChE; listed as carltonine A (13)): higher than 100; inhibition at 100 µM (hBuChE): 98 ± 1%; IC50 (POP (EC 3.4.21.26)): 143 ± 12 µM

Question: Which results are given for `CN(CCc1ccc(O)cc1)Cc1cc2c(cc1-c1cccc3c1N(C)CC3)OCO2` [Carltonine B (14), carltonine B]?
Answer: IC50 (hAChE): > 100 µM; inhibition at 100 µM (hAChE): 40 ± 1%; IC50 (hBuChE): 0.031 ± 0.001 µM; SI for hBuChE (hBuChE): >3226; SI for hBuChE (hBuChE; listed as carltonine B (14)): higher than 100; inhibition at 100 µM (hBuChE): 99 ± 1%

Question: `COc1cc(CN(CCc2ccc(O)cc2)Cc2cc(OC)c(OC)cc2-c2cccc3c2N(C)CC3)c(-c2cccc3c2N(C)CC3)cc1OC` [Carltonine C (15), carltonine C] was tested. Which IC50 (hAChE) did it give?
Answer: The IC50 was > 100 µM.

Question: And the inhibition at 100 µM (hAChE)?
Answer: The inhibition at 100 µM was 9%.

Question: And the IC50 (hBuChE)?
Answer: Its IC50 is 14.8 ± 1.1 µM.

Question: What about the “SI for hBuChE” value (hBuChE) of the same compound?
Answer: The value was >7.

Question: What about the inhibition at 100 µM (hBuChE) of the same compound?
Answer: The inhibition at 100 µM was 78 ± 1%.

Question: What does the source list for `COc1cc(C=O)c(-c2cccc3c2N(C)CC3)cc1OC` [Lycosinine B (1), lycosinine B]?
Answer: IC50 (hAChE): > 100 µM; inhibition at 100 µM (hAChE): 28 ± 1%; IC50 (hBuChE): > 100 µM; inhibition at 100 µM (hBuChE): 42 ± 1%; IC50 (POP (EC 3.4.21.26)): 258 ± 14 µM

Question: Which IC50 (hAChE) does the source give for `c1ccc2c(c1)ncc1cc3c(cc12)OCO3` [Trispheridine (2), trisphaeridine] here?
Answer: Its IC50 is > 100 µM.

Question: What about the inhibition at 100 µM (hAChE) of the same compound?
Answer: Its inhibition at 100 µM is 6 ± 1%.

Question: What about the IC50 (hBuChE) of the same compound?
Answer: Its IC50 is > 100 µM.

Question: What about the inhibition at 100 µM (hBuChE) of the same compound?
Answer: The inhibition at 100 µM was 13 ± 1%.
